Holding throughout (experiment): DTP human tumour cell line panel, 48 h
The subject of assay [1] is MDA-MB-231 breast.
Assay [2] relates to RXF 393 renal.
For assay [3], the system named is EKVX NSCLC.
In assay [4] the test system is NCI-H460 lung.
Assay [5] deals with UACC-62 melanoma.
The subject of assay [6] is TK-10 renal.
For assay [7], the system named is SK-MEL-28 melanoma.
Assay [8] relates to HOP-62 NSCLC.
For assay [9], the system named is SN12C renal.
In assay [10] the test system is LOX IMVI melanoma.
The subject of assay [11] is SK-OV-3 ovarian.
Assay [12] concerns NCI-H23 lung.

Molecules are shown by their SMILES.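 Method: 48-hour compound exposure of cells in 96-well plates, five concentrations, linear interpolation of endpoints. TGI is the concentration that stops growth completely.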

The TGI is the concentration at which net growth stops. A higher TGI goes with less potent growth arrest. Regarding `Cc1nc(-c2ccc([N+](=O)[O-])cc2)cn2c1nc1ccccc12`, the TGI in assay [1] is more than 100 µM; in assay [2], more than 100 µM; in assay [3], more than 100 µM; in assay [4], more than 100 µM; in [5], 53.8 µM; in assay [6], more than 100 µM. For the same compound, the TGI in assay [7], in assay [8], in assay [9], in assay [10], in [11] and in assay [12] was more than 100 µM each time.
Regarding `O=C(CN1c2ccccc2Sc2ccccc21)N1CCNCC1`, the total growth inhibition concentration (TGI) in assay [1], in assay [2], in assay [3], in assay [4], in assay [5] and in assay [6] was more than 100 µM each time. For the same compound, the concentration for total growth inhibition (TGI) in assay [7], in assay [8], in assay [9], in [10], in assay [11] and in [12] was more than 100 µM throughout.
With `CN(C)CCCOc1nc2c(c(=O)n(C)c(=O)n2C)n1C` (tested in a mixture with another compound), the TGI in assay [1] was 32.2 µM; in assay [2], more than 100 µM; in [3], more than 100 µM; in [4], more than 100 µM; in [5], 6.42 µM; in assay [6], 42.1 µM. In addition, the TGI was more than 100 µM in assay [7]; more than 100 µM in [8]; 30.1 µM in assay [9]; 9.8 µM in assay [10]; more than 100 µM in [11]; 97.6 µM in assay [12].
Regarding `Cc1c(-c2nc3ccccc3[nH]2)c(=O)n(-c2ccccc2)n1C`, the TGI in assay [1], in [2], in assay [3], in assay [4], in [5] and in assay [6] was more than 100 µM each time. The TGI in [7], in [8], in assay [9], in assay [10], in [11] and in [12] was more than 100 µM throughout.
With `CN(C)CCCOC(=O)C(c1ccccc1)C1(O)CCSCC1` (stereo not given), the TGI in [1], in assay [2], in assay [3], in assay [4], in assay [5] and in assay [6] was more than 100 µM each time. Besides, the TGI in [7], in [8], in assay [9], in assay [10], in [11] and in [12] was more than 100 µM each time.
Take `c1ccc2c(c1)OC(N1CCCC1)c1cnc(N3CCCC3)nc1-2` (stereo not given): the TGI in assay [1] was more than 100 µM; in [2], 47.8 µM; in assay [3], 58.5 µM; in [4], more than 100 µM; in assay [5] it was more than 100 µM; in assay [6], more than 100 µM. Further, the TGI in [7], in assay [8], in [9], in assay [10], in [11] and in assay [12] was more than 100 µM each time.
As to `CC(C)(N=NC(C)(C)C(=O)NCCO)C(=O)NCCO`, the TGI in [1], in [2], in [3], in assay [4], in assay [5] and in assay [6] was more than 100 µM each time. Moreover, the TGI in assay [7], in [8], in assay [9], in [10], in assay [11] and in assay [12] was more than 100 µM in each case.
Take `NCC1CCN(c2nc3ccccc3c3c2CCCC3)CC1`: the TGI in [1] was 17.2 µM; in assay [2], 11.7 µM; in assay [3] it was 27.7 µM; in [4], 17.6 µM; in assay [5] it was 4.96 µM; in assay [6], 25.9 µM. Besides, the TGI in assay [7] was determined as 12 µM; in assay [8], 32.1 µM; in assay [9] it was 22.4 µM; in [10] it was 16 µM; in assay [11] it was 29.6 µM; in assay [12], 30.1 µM.
Consider `O=c1nc(N2CCN(c3ccccc3)CC2)ccn1C1OC(CO)C(O)C1O` (stereo not given), for which the TGI in [1], in assay [2], in [3], in assay [4], in [5] and in [6] was more than 100 µM each time. Besides, the TGI in [7], in [8], in assay [9], in assay [10], in [11] and in assay [12] was more than 100 µM each time.
`CN(CCC#N)c1ccc(/C=C2\SC(=S)NC2=O)cc1`: the TGI in [1] was more than 100 µM; in [2], 96.9 µM; in assay [3] it was more than 100 µM; in assay [4], more than 100 µM; in assay [5], 47.3 µM; in [6] it was more than 100 µM. Further, the TGI was more than 100 µM in [7]; more than 100 µM in assay [8]; more than 100 µM in assay [9]; 36.2 µM in assay [10]; more than 100 µM in assay [11]; more than 100 µM in assay [12].

(Values after PubChem BioAssay (NCI).)
